According to patent US12479838B2, “D3 receptor agonist compounds; methods of preparation; intermediates thereof; and methods of use thereof” (THE UNITED STATES OF AMERICA, AS REPRESENTED BY THE …, priority 2019, dated 2025):
Where two headings read alike, the source gives them in different places.

How the values were obtained:
human D2LR = human D2LR (Homo sapiens (Human), UniProt P14416); experiment: Radioligand competition binding vs. [3H]-(R)-(+)-7-OH-DPAT, hD2R; conditions: vs. [3H]-(R)-(+)-7-OH-DPAT
human D2LR, sequence (P14416 whole entry): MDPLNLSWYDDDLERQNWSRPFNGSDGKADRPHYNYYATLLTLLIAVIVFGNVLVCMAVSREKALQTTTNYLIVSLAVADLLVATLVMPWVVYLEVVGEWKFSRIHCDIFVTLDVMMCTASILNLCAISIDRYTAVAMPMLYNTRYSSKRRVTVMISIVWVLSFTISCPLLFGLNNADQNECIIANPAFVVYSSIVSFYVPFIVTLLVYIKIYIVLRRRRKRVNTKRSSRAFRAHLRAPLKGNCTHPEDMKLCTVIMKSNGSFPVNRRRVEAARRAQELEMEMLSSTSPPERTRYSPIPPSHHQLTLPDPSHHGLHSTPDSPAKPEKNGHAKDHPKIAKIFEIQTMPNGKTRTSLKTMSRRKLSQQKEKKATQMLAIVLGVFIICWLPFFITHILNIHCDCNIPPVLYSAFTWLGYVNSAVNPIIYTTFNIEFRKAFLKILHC

human D3R = human D3R (Homo sapiens (Human), UniProt P35462); experiment: Radioligand competition binding vs. [3H]-(R)-(+)-7-OH-DPAT, hD3R; conditions: vs. [3H]-(R)-(+)-7-OH-DPAT; for D4R/D3R / D2R/D3R: ratio of Ki; for D2R/D3R: D3R selectivity over D2R
human D3R, sequence (P35462 whole entry): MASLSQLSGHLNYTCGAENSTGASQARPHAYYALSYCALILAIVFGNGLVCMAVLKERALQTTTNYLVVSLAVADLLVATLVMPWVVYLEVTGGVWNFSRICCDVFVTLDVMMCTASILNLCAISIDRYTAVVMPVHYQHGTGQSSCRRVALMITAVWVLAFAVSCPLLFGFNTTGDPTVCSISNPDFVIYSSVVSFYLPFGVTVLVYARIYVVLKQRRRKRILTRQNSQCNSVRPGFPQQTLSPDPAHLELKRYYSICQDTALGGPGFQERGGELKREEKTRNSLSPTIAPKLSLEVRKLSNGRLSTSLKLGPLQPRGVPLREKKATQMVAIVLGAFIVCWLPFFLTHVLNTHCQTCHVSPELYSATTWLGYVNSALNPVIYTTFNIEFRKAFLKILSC

hD1R = hD1R (Homo sapiens (Human), UniProt P21728); experiment: Off-target competition binding vs. [3H]-SCH23390, hD1R; conditions: read-out: hD1R Ki ± SEM
hD1R, sequence (P21728 whole entry): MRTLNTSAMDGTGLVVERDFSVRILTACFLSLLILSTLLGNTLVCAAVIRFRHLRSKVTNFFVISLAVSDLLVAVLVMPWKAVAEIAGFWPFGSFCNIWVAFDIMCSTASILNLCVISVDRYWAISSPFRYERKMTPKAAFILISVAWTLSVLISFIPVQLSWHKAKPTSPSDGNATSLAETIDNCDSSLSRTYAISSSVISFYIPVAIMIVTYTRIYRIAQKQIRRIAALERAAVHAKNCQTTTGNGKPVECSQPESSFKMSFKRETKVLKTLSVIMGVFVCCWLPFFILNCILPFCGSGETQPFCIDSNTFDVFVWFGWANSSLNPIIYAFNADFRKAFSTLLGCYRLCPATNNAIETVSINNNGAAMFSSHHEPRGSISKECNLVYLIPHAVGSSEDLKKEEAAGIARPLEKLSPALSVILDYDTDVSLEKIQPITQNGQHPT

hμOR = hμOR (Homo sapiens (Human), UniProt P35372); experiment: Off-target competition binding vs. [3H]-DAMGO, hμOR; conditions: read-out: hμOR Ki ± SEM
hμOR, sequence (P35372 whole entry): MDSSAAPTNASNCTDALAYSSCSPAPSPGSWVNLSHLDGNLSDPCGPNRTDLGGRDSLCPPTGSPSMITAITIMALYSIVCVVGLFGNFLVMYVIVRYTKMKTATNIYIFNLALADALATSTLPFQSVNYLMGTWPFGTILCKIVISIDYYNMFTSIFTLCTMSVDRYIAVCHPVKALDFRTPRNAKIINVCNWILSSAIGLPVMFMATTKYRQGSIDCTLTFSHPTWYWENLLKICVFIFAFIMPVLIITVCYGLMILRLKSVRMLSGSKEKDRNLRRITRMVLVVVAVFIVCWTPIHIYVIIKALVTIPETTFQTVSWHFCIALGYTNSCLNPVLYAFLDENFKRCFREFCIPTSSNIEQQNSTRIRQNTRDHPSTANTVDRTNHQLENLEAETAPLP

hD2LR = hD2LR (Homo sapiens (Human), UniProt P14416); experiment: Competition binding vs. antagonist [3H]-N-methylspiperone, D2R; conditions: read-out: hD2LR Ki ± SEM
hD2LR, sequence (P14416 whole entry): as the sequence (P14416 whole entry) above

hD3R = hD3R (Homo sapiens (Human), UniProt P35462); experiment: Competition binding vs. antagonist [3H]-N-methylspiperone, D3R; conditions: read-out: hD3R Ki ± SEM; vs. antagonist [3H]-N-methylspiperone
hD3R, sequence (P35462 whole entry): as the sequence (P35462 whole entry) above

human D4.4 = human D4.4 (Homo sapiens (Human), UniProt P21917); experiment: Radioligand competition binding vs. [3H]-(R)-(+)-7-OH-DPAT, hD4R; conditions: HEK293 cells stably expressing hD4R, read-out: D4R Ki ± SEM
human D4.4, sequence (P21917 whole entry): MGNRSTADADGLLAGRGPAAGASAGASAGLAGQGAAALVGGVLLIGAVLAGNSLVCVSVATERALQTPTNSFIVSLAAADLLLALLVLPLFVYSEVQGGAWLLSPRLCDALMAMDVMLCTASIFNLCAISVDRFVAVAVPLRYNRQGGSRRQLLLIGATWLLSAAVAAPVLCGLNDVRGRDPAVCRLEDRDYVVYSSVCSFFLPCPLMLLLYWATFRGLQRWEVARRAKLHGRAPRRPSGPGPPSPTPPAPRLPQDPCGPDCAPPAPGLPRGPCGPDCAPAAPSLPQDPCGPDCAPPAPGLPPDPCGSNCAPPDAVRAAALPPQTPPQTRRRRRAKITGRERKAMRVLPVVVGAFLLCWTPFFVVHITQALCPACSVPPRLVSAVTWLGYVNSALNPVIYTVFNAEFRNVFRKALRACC

[1] = HEK293, read-out: hD2LR Ki ± SEM
[2] = HEK293, read-out: hD3R Ki ± SEM
[3] = HEK293 cells stably expressing hD2R, read-out: D2R Ki ± SEM
[4] = HEK293 cells stably expressing hD3R, read-out: D3R Ki ± SEM
[5] = vs. [3H]-DAMGO, HEK293 membranes, >100 = <50% inhibition at 100 μM

Row | SMILES | Ki (human D2LR; [3]) [nM] | Ki (human D3R; [4]) [nM] | Ki (hD2LR) [nM] | Ki (hD3R) [nM] | Ki (human D2LR; [1]) [nM] | Ki (human D3R; [2]) [nM] | Ki (hD1R) [nM] | Ki (hμOR; [5]) [nM] | also measured
1 | O=C(NCCCCN1CCOC2c3cc(O)ccc3OC[C@@H]21)c1cc2ccccc2[nH]1 (stereo in doubt) [rel-cis-12] |  |  |  |  | 9420 ± 3440 | 13800 | > 100000 |  | Ki (hμOR): 12300 ± 2880 nM
2 | CCCN1CCO[C@@H]2c3cc(O)ccc3OC[C@H]21 [(+)-(4aR,10bR)-2, reference compound] |  |  |  |  | 28 ± 5.59 | 1.67 ± 0.257 | > 100000 | 36600 ± 19800 | 
3 | CCCN1CCO[C@H]2c3cc(O)ccc3OC[C@@H]21 [(−)-(4aS,10bS)-2, reference compound] |  |  |  |  | 7580 ± 2620 | 5620 | > 100000 | 77900 ± 41400 | loss of D3R affinity relative to (+)-(4aR,10bR)-2 (human D3R): > 3000 fold
4 | C[C@H]1COC(c2ccc(N)nc2)CN1CCCCOc1ccc2c(c1)NC(=O)CC2 (stereo partly drawn) [AB04-35, 7-(4-((5S)-2-(6-aminopyridin-3-yl)-5-methylmorpholino)butoxy)-3,4-dihydroquinolin-2(1H)-one] | 113 ± 22.7 | 173 ± 48.2 |  |  |  |  |  |  | D4R/D3R (human D3R): 18.6; D2R/D3R (human D3R): 0.653; Ki (human D4.4): 3220 nM
5 | CCCN1CCO[C@@H]2c3cc(O)ccc3OC[C@H]21 [(+)-PD128,907, (4aR,10bR)-4-propyl-3,4,4a,10b-tetrahydro-2H,5H-chromeno[4,3-b][1,4]oxazin-9-ol, reference compound] | 20.5 ± 2.87 | 1.69 ± 0.0892 |  |  |  |  |  |  | D4R/D3R (human D3R): 15.7; D2R/D3R (human D3R): 12.1; Ki (human D4.4): 26.6 ± 3.97 nM

The next lines start with results.

Row | Ki (human D2LR; [3]) [nM] | Ki (human D3R; [4]) [nM] | Ki (hD2LR) [nM] | Ki (hD3R) [nM] | SMILES | Ki (human D2LR; [1]) [nM] | Ki (human D3R; [2]) [nM] | Ki (hD1R) [nM] | Ki (hμOR; [5]) [nM] | also measured
6 | 1840 | 2010 | 7930 ± 1190 | 2410 ± 287 | C[C@H]1CO[C@@H](c2ccc(N)nc2)CN1CC(=O)N1CCC(CNC(=O)c2cc3ccccc3[nH]2)C1 (stereo partly drawn) [AB07-80, N-((1-(2-((2S,5S)-2-(6-aminopyridin-3-yl)-5-methylmorpholino)acetyl)pyrrolidin-3-yl)methyl)-1H-indole-2-carboxamide] |  |  |  |  | 
7 | 55.9 ± 4.78 | 7.41 ± 0.323 | 7920 ± 772 | 104 ± 7.65 | C[C@H]1CO[C@@H](c2ccc(N)nc2)CN1C/C=C1\CCC(CNC(=O)c2cc3ccccc3[nH]2)C1 (stereo partly drawn) [FOB04-02] |  |  |  |  | 
8 |  |  | 32300 ± 12700 | 2780 ± 1020 | C[C@H]1CO[C@@H](c2ccc(N)nc2)CN1CCn1cc(CNC(=O)c2cc3ccccc3[nH]2)nn1 [AB08-03, N-((1-(2-((2S,5S)-2-(6-aminopyridin-3-yl)-5-methylmorpholino)ethyl)-1H-1,2,3-triazol-4-yl)methyl)-1H-indole-2-carboxamide] |  |  |  |  | 
9 | 1010 ± 162 | 423 ± 164 |  |  | C[C@H]1CO[C@@H](c2ccc(N)nc2)CN1CC(O)CCNC(=O)c1cc2ccccc2[nH]1 (stereo partly drawn) [FOB02-67] |  |  |  | 739 ± 70.1 | 
